Consider six compounds from US20040267283A1, “Method, device and kit for body decoration” (priority 2003, published 2004).

Data set [1] in a line: Solubility of the dyes. Type of data set: physicochemical. The procedure: (§1) In the first part of the in-vitro skin penetration study, the color application included the use of dyes D&C Green no. 6, FD&C Blue no. 1, FD&C Yellow no. 6, and FD&C Red no. 40. All chemicals used were analytical grade, obtained from standard supply houses (Sigma, VWR, etc.). The dyes were dissolve in ddw and the solution conductivity was measured using a dedicated apparatus. The target conductivity was defined as a minimum of 1 mAmp/cm^3 current at 3 volts. If such conductivity was not attained, the dye concentration and/or the voltage were increased.

A short description of data set [2]: Solution conductivity of the dyes (current at applied voltage). Type of data set: physicochemical. As to the method:
as §1, with “increased. See Table 1 for the solubility and conductivity of the dyes.” for “increased.”

In a further data set the test system is rabbit. The following applies: SC in rabbit; cited from earlier work.
The subject of a further data set is swine ear skin. As to the method: An in-vitro skin penetration study was conducted to determine which combination of parameters results in the maximum amount of active substance, e.g., color formulation, being delivered into the skin, i.e., the dermis and epidermis, but not through the skin, i.e., beneath the epidermis.
The in-vitro skin penetration study generally included the following test procedure. Decoration ink, as in embodiments of the present invention, was applied on a piece of swine ear skin. The swine skin was excised to full thickness (epidermis and dermis) to an approximate depth of 500-1000 μm. […]
At the end of the exposure period, the entire receptor compartment was drained and the solution reserved for subsequent analysis of the dye(s) and/or pigment(s). […] The depth of penetration was measured by noting the number of tape strippings required to remove the ink. […] The ink was determined quantitatively using customary analytical procedures (e.g., HPLC, UV-Vis spectrum, GC, radiolabeled detection, etc.), as applicable. […]
In these experiments, the enhancing effect of iontophoresis and/or electroosmosis on skin penetration of different dyes was assessed. […] The following properties were measured to determine the enhancing effect of iontophoretic induction on the dyes' skin penetration: uniformity of the dyeing by observation; and penetration depth by tape stripping. […]

For data set [3] the following is noted: reason for choosing the additional dyes; cited from earlier work.
A further data set deals with human. The settings on record: reason for choosing the additional dyes; cited from earlier work.
Data set [4] is described as follows: Solubility of the dyes. Type of data set: physicochemical. This is another data set of the same source.
The test system of the next data set is mice. The settings on record: cited from earlier work; for Toxicity, LD50: IP in mice.
The subject of a further data set is swine skin. As to the kind of experiment: In-vitro skin penetration, hydrogel patches on stretched skin (vertical diffusion cells without cell tops), tape stripping. Type of data set: in vitro ADME. The following applies: for Depth of penetration (Tape strips = TS): skin cleaned with 10% lactic acid. As to the method: In the second part of the in-vitro skin penetration study, the color application included the use of a hydrogel patch and dye FD&C Red no. 40 and additional dyes, Acid Blue 1 (Blue V) and Indocyanine green, on the swine skin. All chemicals used were analytical grade, obtained from standard supply houses (Sigma, VWR, etc.). […] In these experiments, the depth of penetration was tested for the additional dyes using iontophoresis and/or electroosmosis. Additionally, extensive work was done in order to establish a shaped tattoo that is sharp and has strong color imprint. The experiments were also directed to the effect of the application duration on the tattoo life span. The following properties of the tattoo were measured to determine the effects of iontophoresis on the dyes and pigments' skin penetration: uniformity of the dyeing by observation; penetration depth by tape stripping; and water durability by washing the skin with tap water.
The experiments performed in this second part of the study are described below. Experiments 2.1-2.8 and 2.10-2.14 were conducted on in-vitro swine skin. Experiments 2.9, 2.15, and 2.16 were conducted on in-vivo human skin. FIGS. 6-14 illustrate the body decoration results from the experiments.
This experiment was conducted to determine the dye penetration depth of stretched skin, as would be the case on the subject's body area. In the vertical diffusion cells without the cell tops, the skin was stretched with the cell clamps. To increase the water content of the hydrogel in the patches, the hydrogel was soaked with ddw for 2 minutes. Excess water was then absorbed. Tissue paper heart-shaped pieces were soaked in Blue V solution (100 mg/ml in ddw). The blue heart shapes were placed on the patches' hydrogel and removed a few seconds later, leaving a blue heart-shaped imprint on the hydrogel. The hydrogel patches with the blue heart-shaped imprint were placed on the skin after the skin was cleaned with 10% lactic acid. In the active experiments, the patch wires were connected to a power supply tuned to 0.5 mAmp (0.5 mAmp/cm^2). […] The dye penetration depth was determined by tape stripping.
Blue heart-shaped tattoos were created, as described before in Experiment 6. This experiment was conducted to sharpen the tattoo by soaking the hydrogel in ddw for only few seconds.
In this experiment, the patches' hydrogel content was changed. Instead of KCl, the hydrogel contained NaCl. 100 mg/ml Blue V in ddw with 10% ethanol was used to create the blue heart-shaped imprint. The assay lasted 20 minutes and was done in duplicates. […] The penetration depth was lower with NaCl than KCl in Experiment 2.6.

For another data set, the system named is human skin. Kind of data set: In-vivo human skin tattoo with imprinted hydrogel patches. The settings on record: Exp 2.16, human study, star shape, 50 mg/ml in ddw, 0.04 mAmp, 60 min, skin cleaned with 10% lactic acid.

The structures appear in SMILES notation.

On to `COc1cc(S(=O)(=O)[O-])c(C)cc1N=Nc1c(O)ccc2cc(S(=O)(=O)[O-])ccc12.[Na+].[Na+]` [Red no. 40, FD&C Red no. 40], for which the Solubility result in “Solubility of the dyes [1]” (10 mg/ml in water) and in “Solubility of the dyes [1]” (20 mg/ml in water) was “Soluble” in each case. Besides, the Current result was “˜0.3 mA” in data set [2] (10 mg/ml in water, 3 V); 1 mA in data set [2] (10 mg/ml in water, 4.15 V); 1.1 mA in data set [2] (20 mg/ml in water, 3 V). The “Toxicity, LD50” value in the data set with rabbit was “LD50 > 10 gm/kg,”.

With `CC1(C)C(/C=C/C=C/C=C/C=C2\N(CCCCS(=O)(=O)O)c3ccc4ccccc4c3C2(C)C)=[N+](CCCCS(=O)(=O)[O-])c2ccc3ccccc3c21` [Green, Indocyanine green, reference compound], in the data set with swine ear skin, the “Effect of iontophoresis on skin penetration depth” value is listed as “not affected”. Moreover, in data set [3], the Solubility in water result is “soluble in water”. For the same compound, in the data set on human, the “Toxicity (approved for human injection)” value is reported as “nontoxic”.

As to `Cc1ccc(Nc2ccc(Nc3ccc(C)cc3)c3c2C(=O)c2ccccc2C3=O)cc1` [Green no. 6, D&C Green no. 6], the Solubility result in “Solubility of the dyes [1]” (10 mg/ml in water), in the data set “Solubility of the dyes [4]” (2.5 mg/ml + 30% ethanol) and in “Solubility of the dyes [4]” (10 mg/ml + 30% ethanol) was “Insoluble” throughout. For the same compound, the “Toxicity, LD50” value with mice is “LD50 = 0.25 gm/kg”.

The compound `O=S(=O)([O-])c1ccc(N=Nc2c(O)ccc3cc(S(=O)(=O)[O-])ccc23)cc1.[Na+].[Na+]` [Yellow no. 6, FD&C Yellow no. 6] displayed a Current in [2] (20 mg/ml in water, 3 V) of 1.3 mA. Besides, the “Toxicity, LD50” value in the data set with mice is on record as “LD50 = 4.6 gm/kg”.

With `CCN(Cc1cccc(S(=O)(=O)[O-])c1)c1ccc(C(=C2C=CC(=[N+](CC)Cc3cccc(S(=O)(=O)[O-])c3)C=C2)c2ccccc2S(=O)(=O)[O-])cc1.[Na+].[Na+]` [Blue no. 1, FD&C Blue no. 1], the Solubility entry in the data set “Solubility of the dyes [1]” (2 mg/ml in water), in “Solubility of the dyes [1]” (6 mg/ml in water), in the data set “Solubility of the dyes [1]” (10 mg/ml in water) and in “Solubility of the dyes [1]” (20 mg/ml in water) was “Soluble” in each case. The Current result is listed as “None” in [2] (2 mg/ml in water, 3 V); “˜0.3 mA” in data set [2] (6 mg/ml in water, 3 V); 1 mA in data set [2] (6 mg/ml in water, 3.92 V); “˜0.4 mA” in data set [2] (10 mg/ml in water, 3 V); 1 mA in [2] (10 mg/ml in water, 3.69 V); “˜0.4 mA” in data set [2] (20 mg/ml in water, 3 V). The compound further yielded a Current in data set [2] (20 mg/ml in water, 3.69 V) of 1 mA. In the data set on mice (SC in mice), the Toxicity was 5.5 gm/kg.

With `CCN(CC)c1ccc(C(=C2C=CC(=[N+](CC)CC)C=C2)c2ccc(S(=O)(=O)[O-])cc2S(=O)(=O)[O-])cc1.[Na+]` [Blue V, Acid Blue 1], in the data set on swine ear skin, the “Effect of iontophoresis on skin penetration depth” value is on record as “increased”. For the same compound, the “Depth of penetration (Tape strips = TS)” value in the data set on swine skin (Exp 2.13, Active, Anode, hydrogel with NaCl, 100 mg/ml in ddw with 10% ethanol, current = 500 μA/cm^2, 20 min) is reported as “Anode - TS# 3”; with swine skin (Exp 2.13, Active, Cathode, hydrogel with NaCl, 100 mg/ml in ddw with 10% ethanol, current = 500 μA/cm^2, 20 min) it was “Cathode - TS# >4”; in the data set on swine skin (Exp 2.13, Passive, hydrogel with NaCl, 100 mg/ml in ddw with 10% ethanol, 20 min), “TS# 3”; in the data set on swine skin (Exp 2.6, Active, Anode, 100 mg/ml in ddw, stretched skin, current = 500 μA/cm^2, 30 min), “Anode - TS# 5”; with swine skin (Exp 2.6, Active, Cathode, 100 mg/ml in ddw, stretched skin, current = 500 μA/cm^2, 30 min), “Cathode - TS# >6”; in the data set with swine skin (Exp 2.6, Passive, 100 mg/ml in ddw, stretched skin, 30 min), “TS# 4”. Further, the “Depth of penetration (Tape strips = TS)” value in the data set with swine skin (Exp 2.8, Active, Anode, 100 mg/ml in ddw, hydrogel soaked in ddw for only few seconds, current = 500 μA/cm^2) was “Anode - TS# 4”; in the data set with swine skin (Exp 2.8, Active, Cathode, 100 mg/ml in ddw, hydrogel soaked in ddw for only few seconds, current = 500 μA/cm^2), “Cathode - TS# >7”; with swine skin (Exp 2.8, Passive, 100 mg/ml in ddw, hydrogel soaked in ddw for only few seconds), “TS# 4”. The “Penetration depth with NaCl hydrogel compared with KCl hydrogel” value in the data set on swine skin (Exp 2.13 compared with Exp 2.6) is given as “lower”. Moreover, the “Time after which the dye completely faded (tattoo life span)” value is reported as “after 10 days” in the data set with human skin (Active With polyester) and “after 7 days” in the data set on human skin (Active Without polyester). In data set [3], the Solubility in water entry was “soluble in water”. Moreover, the “Toxicity (approved for human injection)” value with human is on record as “nontoxic”.
